Tests used:
B16-OVA melanoma = experiment: Adoptive transfer of OT-II Th9 cells with anti-PD-1, B16-OVA tumor growth (Figure 2I); assay type: in vivo, C57BL/6 mice; conditions: EpA-Th9 cells with anti-PD-1; result in words
Description: (A) Schematic of the therapeutic model. C57BL/6 mice were subcutaneously inoculated with B16-OVA melanoma cells (5 × 10^5) and preconditioned with cyclophosphamide (CTX) on day 4. […] (B–G) Flow-cytometric analysis of transferred CD45.1^+ OT-II Th9 cells (B and C) and endogenous CD4^+ (D and E) and CD8^+ T cells (F and G) in spleens and tumors, showing frequencies and absolute numbers (n = 4 mice per group). (H) Tumor growth curves in B16-OVA–bearing C57BL/6 or β2-microglobulin–deficient (β2m-KO) mice following transfer of control or EpA-treated OT-II Th9 cells (n = 4 mice per group). (I) C57BL/6 mice bearing B16-OVA tumors were treated with control or EpA-induced OT-II Th9 cells (2 × 10^6, i.v., day 5), followed by anti–PD-1 antibody (200 μg, i.p.) on day 7, and (100 μg, i.p.) on day 10 and 12. Tumor growth is shown with individual trajectories (n = 6 mice per group). Statistical analysis was performed using 2-tailed unpaired Student’s t test ([…], B–G) or 1-way ANOVA with Tukey’s post hoc test (H and I). All data are presented as the mean ± SEM. *P < 0.05, **P < 0.01, ***P < 0.001. Schematic in A created using BioRender (https://Biorender.com).
Finally, we examined whether the CD8^+ T cell–supporting capacity of EpA-Th9 cells could synergize with immune checkpoint blockade (ICB) therapy. […]

PD-1 on T cells = experiment: PD-1 expression on donor Th9 and endogenous CD8+/CD4+ T cells from spleens (S4J-L); assay type: in vivo, mouse; conditions: for Expression of PD-1 of transferred CD45.1⁺ OT-II Th9 cells in spleen: Supplemental Figure 4J; for Expression of PD-1 of endogenous CD8⁺ T cells in spleen: Supplemental Figure 4K; for Expression of PD-1 of endogenous CD4⁺ T cells in spleen: Supplemental Figure 4L
Description: C57BL/6 mice were subcutaneously injected with 5 × 10^5 B16-OVA melanoma cells. Five days after tumor implantation, mice received an intravenous infusion of 2 × 10^6 in vitro–differentiated Th9 cells (cultured for 5 days), which were derived from OT-II CD45.1 donor mice, accompanied by 4 × 10^5 OVA peptide–pulsed DCs via the tail vein. To enhance T cell engraftment and facilitate lymphodepletion, a single intraperitoneal injection of cyclophosphamide (200 mg/kg, Sigma, catalog C0768) was administered 1 day prior to T cell transfer. Mice were euthanized at designated time points for the collection and analysis of spleens, tumor-draining lymph nodes, and tumor tissues.
Details regarding staining panels (human and mouse), reagents (including clones and catalog numbers), acquisition settings, compensation/controls, and analysis procedures are provided in Supplemental Methods.
CD45.1+ T Cells in Tumors
CtrlEpA Ctrl EpA GzmB Ctrl EpA
CtrlEpA CtrlEpA GzmB Ctrl EpA
J CD45.1+ T Cells in Spleens K CD8+ T Cells in Spleens L CD4+ T Cells in Spleens […]
PD-1 0 CtrlEpA PD-1 0 CtrlEpA PD-1 0 CtrlEpA […]
cells and endogenous T cells.
(A–C) Mean fluorescence intensity (MFI) of IFN-γ (A) and TNF-α (B), and representative flow-cytometric plots with quantification of Granzyme B⁺ Perforin⁺ cells (C) among adoptively transferred CD45.1⁺ Th9 cells in tumors. (D–F) MFI of IFN-γ (D) and TNF-α (E), and representative plots with quantification of Granzyme B⁺ Perforin⁺ cells (F) among tumor-infiltrating CD8⁺ T cells. (G–I) MFI of IFN-γ (G) and TNF-α (H), and representative plots with quantification of Granzyme B⁺ Perforin⁺ cells (I) among tumor-infiltrating CD4⁺ T cells. (J–L) PD-1 expression in adoptively transferred CD45.1⁺ Th9 cells (J), endogenous CD8⁺ T cells (K), and endogenous CD4⁺ T cells (L) from spleens of tumor-bearing mice. Data in (A–L) are shown as mean ± SEM from n = 4 mice per group. Statistical analysis was performed using two-tailed unpaired Student’s t-test (A–L). ns, not significant. *p < 0.05, **p […]
(also on this page, place not known: IFN -γ MFIofTNF-α CtrlEpACtrlEpA MFIofIFN-γ 1500MFIofTNF-α MFIofIFN-γ 800MFIofTNF-α CtrlEpA0 CtrlEpA0 CtrlEpA0 MFI of (×103Ď CtrlEpA0 MFI of PD-1 (×103) MFI of PD-1 (×103) CtrlEpAPD-1 HG FE GzmB+ PRF1+ of CD45.1+ cells (%) GzmB+ PRF1+ of CD8+ cells (%) GzmB+ PRF1+ of CD4+ cells (%) PRF1 PRF1 PRF1 0.3887.5 MFIofIFN-γ) […]

## anteiso-C15 Leu7 surfactin [EpA]
B16-OVA melanoma
  response to PD-1 blockade: significantly enhanced the therapeutic response to PD-1 blockade
PD-1 on T cells; donor Th9 and endogenous T cells, result in words
  PD-1 expression: comparable between groups
PD-1 on T cells; replicate 1
  Expression of PD-1 of transferred CD45.1⁺ OT-II Th9 cells in spleen: 5868
  Expression of PD-1 of endogenous CD8⁺ T cells in spleen: 1931
  Expression of PD-1 of endogenous CD4⁺ T cells in spleen: 6299
PD-1 on T cells; replicate 2
  Expression of PD-1 of transferred CD45.1⁺ OT-II Th9 cells in spleen: 7923
  Expression of PD-1 of endogenous CD8⁺ T cells in spleen: 1939
  Expression of PD-1 of endogenous CD4⁺ T cells in spleen: 5672
PD-1 on T cells; replicate 3
  Expression of PD-1 of transferred CD45.1⁺ OT-II Th9 cells in spleen: 10955
  Expression of PD-1 of endogenous CD8⁺ T cells in spleen: 2374
  Expression of PD-1 of endogenous CD4⁺ T cells in spleen: 6004
PD-1 on T cells; replicate 4
  Expression of PD-1 of transferred CD45.1⁺ OT-II Th9 cells in spleen: 4100
  Expression of PD-1 of endogenous CD8⁺ T cells in spleen: 1655
  Expression of PD-1 of endogenous CD4⁺ T cells in spleen: 4982

Source: paper PMC12867150, “A fungi-derived cyclic peptide enhances Th9-mediated antitumor immunity by targeting ZAP70 and SREBP1” (The Journal of Clinical Investigation, 2025)
